Here are results for two sequences from patent US20070128217A1 (priority 2003, published 2007).

The test system of experiment [1] is control sera (pooled serum of ten healthy LUMC hospital workers; commercial negative donor pooled serum from the Dutch bloodbank). It is filed as binding, human. The arrangement: Binding of Control serum LUMC to linear peptides / Binding of Control serum Blood-bank to linear peptides / Binding of Control serum LUMC to looped peptides / Binding of Control Serum Blood-Bank to Looped peptides / Binding of Control serum LUMC to linear peptides of the protein M of SARS-CoV Urbani / Binding of Control serum Blood-bank to linear peptides of the protein M of SARS-CoV Urbani / Binding of Control serum LUMC to looped peptides of the protein M of SARS-CoV Urbani / Binding of Control Serum Blood-Bank to Looped peptides of the protein M of SARS-CoV Urbani: unit not given here.

In experiment [2] the test system is rabbit serum obtained by immunizing a rabbit with the SARS-CoV strain Frankfurt 1. The experiment is classed as binding. Further details: Binding of a rabbit serum to linear peptides / Binding of a rabbit serum to looped peptides / Rabbit serum linear peptides / Rabbit serum looped peptides / Binding of a rabbit serum to linear peptides of protein N of SARS-CoV Urbani (Rabbit serum linear peptides) / Binding of a rabbit serum to looped/cyclic peptides of protein N of SARS-CoV Urbani (Rabbit serum looped peptides): unit not given here.

Experiment [3] deals with antibodies in sera from SARS patients (sera 1a, 1b, 2, 6, 37, 62, London, SARS-yellow, SARS-green). The experiment is classed as binding, human. Further details: Binding of serum 6 to linear peptides of protein X1 of SARS-CoV Urbani / Binding of serum 37 to linear peptides of protein X1 of SARS-CoV Urbani / Binding of serum 6 to looped/cyclic peptide (PEPSCAN-ELISA) / Binding of serum 37 to looped/cyclic peptide (PEPSCAN-ELISA) / Binding of serum 37 to looped/cyclic peptides of protein X1 of SARS-CoV Urbani / Binding of serum 6 to linear peptides of protein X2 / Binding of serum 37 to linear peptides of protein X2 / Binding of serum 37 to looped/cyclic peptides of protein X2 of SARS-CoV Urbani / Binding of serum 6 to linear peptides of protein M of SARS-CoV Urbani / Binding of serum 37 to linear peptides of protein M of SARS-CoV Urbani / Binding of serum 6 to looped/cyclic peptides of protein M of SARS-CoV Urbani / Binding of serum 37 to looped/cyclic peptides of protein M of SARS-CoV Urbani / Binding of serum 6 to linear peptides of protein X3 of SARS-CoV Urbani / Binding of serum 37 to linear peptides of protein X3 of SARS-CoV Urbani / Binding of serum 37 to looped/cyclic peptides of protein X3 of SARS-CoV Urbani / Binding of serum 6 to linear peptides of protein X4 of SARS-CoV Urbani / Binding of serum 37 to linear peptides of protein X4 of SARS-CoV Urbani / Binding of serum 37 to looped/cyclic peptides of protein X4 of SARS-CoV Urbani / Binding of serum 6 to linear peptides of protein X5 of SARS-CoV Urbani / Binding of serum 37 to linear peptides of protein X5 of SARS-CoV Urbani / Binding of serum 37 to looped/cyclic peptides of protein X5 of SARS-CoV Urbani / Binding of serum 6 to linear peptides of protein N of SARS-CoV Urbani / Binding of serum 37 to linear peptides of protein N of SARS-CoV Urbani / Binding of serum 6 to linear peptide (PEPSCAN-ELISA) / Binding of serum 1a to looped/cyclic peptides of protein N of SARS-CoV Urbani / Binding of serum 1b to looped/cyclic peptides of protein N of SARS-CoV Urbani / Binding of serum 2 to looped/cyclic peptides of protein N of SARS-CoV Urbani / Binding of serum 6 to looped/cyclic peptides of protein N of SARS-CoV Urbani / Binding of serum 37 to looped/cyclic peptides of protein N of SARS-CoV Urbani / Binding of serum 62 to looped/cyclic peptides of protein N of SARS-CoV Urbani / Binding of serum London to looped/cyclic peptides of protein N of SARS-CoV Urbani / Binding of serum SARS-green to looped/cyclic peptides of protein N of SARS-CoV Urbani: unit not given here.

Regarding LVIGAVIIRGHLRMA, in experiment [1], the “Binding of Control Serum Blood-Bank to Looped peptides of the protein M of SARS-CoV Urbani” value was found to be 0.7, the “Binding of Control serum Blood-bank to linear peptides of the protein M of SARS-CoV Urbani” value was 0.6, the “Binding of Control serum LUMC to linear peptides of the protein M of SARS-CoV Urbani” value came to 0.7 and the “Binding of Control serum LUMC to looped peptides of the protein M of SARS-CoV Urbani” value is on record as 0.7. Besides, in experiment [2], the “Rabbit serum linear peptides” value was determined as 0.2 and the “Rabbit serum looped peptides” value came out at 1.4. Moreover, in experiment [3], the “Binding of serum 1a to linear peptides of protein M of SARS-CoV Urbani” value came out at 0.7, the “Binding of serum 1a to looped/cyclic peptides of protein M of SARS-CoV Urbani” value came out at 0.8, the “Binding of serum 1b to linear peptides of protein M of SARS-CoV Urbani” value worked out at 0.5 and the “Binding of serum 1b to looped/cyclic peptides of protein M of SARS-CoV Urbani” value came to 0.4. In experiment [3], the “Binding of serum 2 to linear peptides of protein M of SARS-CoV Urbani” value was 0.5, the “Binding of serum 2 to looped/cyclic peptides of protein M of SARS-CoV Urbani” value turned out to be 0.8, the “Binding of serum 6 to linear peptides of protein M of SARS-CoV Urbani” value stood at 0.6 and the “Binding of serum 6 to looped/cyclic peptides of protein M of SARS-CoV Urbani” value stood at 1.2. Moreover, in experiment [3], the “Binding of serum 37 to linear peptides of protein M of SARS-CoV Urbani” value is 0.4, the “Binding of serum 37 to looped/cyclic peptides of protein M of SARS-CoV Urbani” value stood at 0.7, the “Binding of serum 62 to linear peptides of protein M of SARS-CoV Urbani” value was found to be 0.4 and the “Binding of serum 62 to looped/cyclic peptides of protein M of SARS-CoV Urbani” value amounted to 0.8. Also, in experiment [3], the “Binding of serum London to linear peptides of protein M of SARS-CoV Urbani” value was 0.3, the “Binding of serum SARS-green to linear peptides of protein M of SARS-CoV Urbani” value is on record as 0.4, the “Binding of serum SARS-green to looped/cyclic peptides of protein M of SARS-CoV Urbani” value is 0.3 and the “Binding of serum SARS-yellow to linear peptides of protein M of SARS-CoV Urbani” value came out at 0.3. For the same sequence, the “Binding of serum SARS-yellow to looped/cyclic peptides of protein M of SARS-CoV Urbani” value in experiment [3] was determined as 0.7.
LVIGVAFLAVFQSAT: in experiment [1], the “Binding of Control Serum Blood-Bank to Looped peptides” value was 1.1, the “Binding of Control serum Blood-bank to linear peptides” value was found to be 0.6, the “Binding of Control serum LUMC to linear peptides” value is recorded as 0.6 and the “Binding of Control serum LUMC to looped peptides” value is reported as 1.0. In addition, in experiment [2], the “Binding of a rabbit serum to linear peptides” value was 0.3 and the “Binding of a rabbit serum to looped peptides” value was 1.2. Besides, in experiment [3], the “Binding of serum 1a to linear peptides of protein X1 of SARS-CoV Urbani” value turned out to be 0.7, the “Binding of serum 1a to looped/cyclic peptide (PEPSCAN-ELISA)” value is 0.8, the “Binding of serum 1b to linear peptides of protein X1 of SARS-CoV Urbani” value was determined as 0.6 and the “Binding of serum 1b to looped/cyclic peptide (PEPSCAN-ELISA)” value came out at 0.6. In experiment [3], the “Binding of serum 2 to linear peptides of protein X1 of SARS-CoV Urbani” value came out at 0.6, the “Binding of serum 2 to looped/cyclic peptide (PEPSCAN-ELISA)” value is recorded as 0.7, the “Binding of serum 6 to linear peptides of protein X1 of SARS-CoV Urbani” value is on record as 0.4 and the “Binding of serum 6 to looped/cyclic peptide (PEPSCAN-ELISA)” value turned out to be 0.7. For the same sequence, in experiment [3], the “Binding of serum 37 to linear peptides of protein X1 of SARS-CoV Urbani” value stood at 0.6, the “Binding of serum 37 to looped/cyclic peptide (PEPSCAN-ELISA)” value was found to be 0.8, the “Binding of serum 62 to linear peptides of protein X1 of SARS-CoV Urbani” value was 0.6 and the “Binding of serum 62 to looped/cyclic peptide (PEPSCAN-ELISA)” value is on record as 1.0. For the same sequence, in experiment [3], the “Binding of serum London to linear peptides of protein X1 of SARS-CoV Urbani” value was 0.3, the “Binding of serum London to looped/cyclic peptide (PEPSCAN-ELISA)” value worked out at 0.3, the “Binding of serum SARS-green to linear peptides of protein X1 of SARS-CoV Urbani” value came out at 0.3 and the “Binding of serum SARS-green to looped/cyclic peptide (PEPSCAN-ELISA)” value stood at 0.5. Also, in experiment [3], the “Binding of serum SARS-yellow to linear peptides of protein X1 of SARS-CoV Urbani” value amounted to 0.4 and the “Binding of serum SARS-yellow to looped/cyclic peptide (PEPSCAN-ELISA)” value was found to be 0.7.
